# Reference: PMC6767236, “Selective Cannabinoid 2 Receptor Agonists as Potential Therapeutic Drugs for the Treatment of Endotoxin-Induced Uveitis” (Molecules, 2019)
# pEC50: −log10 of the molar value. Like-named read-outs stand apart in the source and are kept apart here.
# Tests used:
# [1] = Saturation (thermodynamic) solubility in buffer, FaSSIF, FeSSIF; format: physicochemical; details: thermodynamic from solid
# Procedure: Saturation Solubility (= Thermodynamic Solubility)
# Approximately 8.6 mg test compound per milliliter solvent/vehicle was stirred in HPLC vials (9 × 12 × 32 mm, Waters) at 350 rpm for 15 h. Samples of 10 µL each were taken and microscopically examined for presence of solid particles. If the active pharmacological ingredient (API) dissolved completely, more solid API was added, and stirring was continued for another 15 h. Addition of solid material was repeated up to 96 h or until residual solid particles could be detected. Samples of 0.5 mL were then transferred to Eppendorf Ultrafree filter tubes (Filter: PVDF 0.22 µm) and centrifuged at 14,500 rpm for 10 min. The filtrates were diluted in ethanol and analyzed for content by UPLC. The measurements were also conducted in 0.05 M aqueous phosphate buffer, fasted (FaSSIF), and fed (FeSSIF) simulated gastrointestinal fluid. […]
# [2] = human and mouse liver microsomes; underlying data previously published; cited from earlier work
# [3] = target: T1, mouse CB2R (Mus musculus, UniProt P47936); experiment: cAMP assay, mouse CB2R (mouse spleen homogenate); format: biochemical
# T1 sequence (P47936 whole entry): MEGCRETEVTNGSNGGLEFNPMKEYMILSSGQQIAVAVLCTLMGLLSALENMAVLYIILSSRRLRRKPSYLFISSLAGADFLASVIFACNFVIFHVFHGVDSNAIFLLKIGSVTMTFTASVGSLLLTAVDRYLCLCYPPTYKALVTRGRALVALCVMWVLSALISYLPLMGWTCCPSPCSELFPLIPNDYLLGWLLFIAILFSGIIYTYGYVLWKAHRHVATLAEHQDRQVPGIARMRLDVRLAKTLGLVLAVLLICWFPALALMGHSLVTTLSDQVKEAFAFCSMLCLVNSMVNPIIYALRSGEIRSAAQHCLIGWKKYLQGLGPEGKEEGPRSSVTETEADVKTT
# Procedure: The effect of ligands on the forskolin-stimulated accumulation of cAMP was determined using the LANCE ULTRA cAMP kit as per the manufacturer’s instruction (Perkin-Elmer Life Sciences, Boston, MA, USA).
# For mouse CB2R cAMP assays, mouse spleen was resuspended in 50 mM of Tris-HCl (pH 7.4), then homogenized with a Potter homogenizer and centrifuged at 1000× g for 10 min. The supernatants were incubated for 30 min with 1-methyl-3-isobutylxanthine (IBMX), then forskolin was added in the presence or absence of ligands. The supernatants were incubated for 30 min in ATP Regeneration Buffer (50 mM HEPES, pH 7.4, 10 mM phosphocreatine, 10 units/mL creatine phosphokinase, 10 μM GTP, 200 μM ATP, 10 mM MgCl2, 250 μM IBMX), and the reaction was stopped by adding lysis buffer. Time-resolved fluorescence was measured with a Victor V Multilabel counter (Perkin-Elmer Life Sciences, Boston, MA, USA).
# [4] = * previously published; cited from earlier work
# [5] = target: T1, mouse CB2R; experiment: cell-based; format: cell-based; design: bgal (beta-galactosidase fragment of the PathHunter system, named only in the cell line's name); host or cells: CHO-K1 (CHOK1mCB2_bgal)
# Procedure: Assays were carried out using the PathHunter hCB1_bgal, hCB2_bgal, or mCB2_bgal CHOK1 β-arrestin recruitment assay kit (DiscoveRx, Fremont, CA, USA) as previously described. A total of 5000 cells per well were seeded in 384-well plates (Perkin Elmer, MA, USA) containing 20 μL cell culture medium and incubated for 16–18 h at 37 °C and 5% CO2. Cells were stimulated with 10 μM of each agonist or 11 increasing concentrations and incubated for 90 min at 37 °C and 5% CO2. […] The cells were incubated for 90 min at 37 °C and 5% CO2. Compounds in DMSO stock solutions were added using a HP D300 Digital Dispenser (Tecan, Mannedorf, Switzerland). The final concentration of organic solvent per assay point was ≤ 0.1%. The PathHunter Detection mixture was used, according to the manufacturer’s protocol, to determine the β-galactosidase enzyme activity. Detection mixture, 12 μL per well, was added and the plate was incubated for 1 h in the dark at room temperature. Chemiluminescence, indicated as relative light unit, was measured on an EnVision multilabel plate reader (Perkin Elmer, MA, USA).
# [6] = mouse, * previously published, cited from earlier work; for T1/2 / Tmax: oral, HU308 5 mg/kg, others 3 mg/kg
# [7] = Chemical stability (aqueous stability assay ASTA); format: physicochemical; details: aqueous buffer, 37 °C
# Procedure: Chemical Stability (= Aqueous Stability Assay ASTA)
# ASTA is a fully automated assay to determine the 2 h stability of a molecule in aqueous conditions, over the pH range 1–10. Five different pH values are used and the solutions are heated at 37 °C. A compound is classified unstable if, after 2 h, less than 90% of the initial concentration can be found. Samples are first prepared on incubation plates and shaken initially for 10 min at 37 °C.
# Solutions are then transferred to a filter plate (Millipore MSGVN2250, pore size 0.22 µm) and filtrated into V-bottom plates (from ABGene, AB-0800) that are heat-sealed prior to HPLC analysis. The procedure is performed a second time. However, the incubation time at 37 °C for the second plate is increased by 2 h. Samples are taken at time point 0 and 2 h and analyzed by HPLC. […]
# [8] = human hepatocytes; * previously published; cited from earlier work
# [9] = design: method as in earlier work; details: mouse, i.v., 0.5-1 mg/kg; * previously published; cited from earlier work
# [10] = system: human P-gp; details: human P-gp; * previously published; cited from earlier work
# [11] = cited from earlier work; for PAMPA Peff: * at end of cell: previously published; for PAMPA %Acceptor / PAMPA %Donor / PAMPA %Membrane: * previously published
# [12] = * previously published; cited from earlier work; remark: listed apart in the source
# [13] = target: T2, human CB1R (Homo sapiens, UniProt P21554)
# T2 construct: host or cells: CHO
# T2 sequence (P21554 whole entry): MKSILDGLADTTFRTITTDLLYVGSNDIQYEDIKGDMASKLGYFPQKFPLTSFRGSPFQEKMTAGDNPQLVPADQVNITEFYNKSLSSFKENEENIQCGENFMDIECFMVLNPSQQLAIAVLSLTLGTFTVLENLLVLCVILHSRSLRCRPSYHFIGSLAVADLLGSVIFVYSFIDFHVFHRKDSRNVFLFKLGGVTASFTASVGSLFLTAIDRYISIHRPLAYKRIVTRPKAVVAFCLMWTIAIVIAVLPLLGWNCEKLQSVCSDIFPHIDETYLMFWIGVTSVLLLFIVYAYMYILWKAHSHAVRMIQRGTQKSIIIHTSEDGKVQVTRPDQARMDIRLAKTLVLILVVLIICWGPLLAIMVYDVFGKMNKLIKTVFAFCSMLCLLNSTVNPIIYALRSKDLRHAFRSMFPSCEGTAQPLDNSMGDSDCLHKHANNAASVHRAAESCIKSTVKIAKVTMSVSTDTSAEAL
# [14] = phosphate buffer pH 6.5; * previously published; cited from earlier work
# [15] = target: T2, human CB1R; remark: listed apart in the source
# [16] = FaSSIF pH 6.5, read-out: Thermodynamic Solubility in FaSSIF (pH 6.5)
# [17] = FeSSIF pH 5.5, read-out: Thermodynamic Solubility in FeSSIF (pH 5.5)
# [18] = aqueous phosphate buffer pH 6.5, read-out: Thermodynamic Solubility in Aqueous Buffer (pH 6.5)
# [19] = read-out: mouse CB2R: beta arrestin EC50
# [20] = pH 1, 2 h, read-out: Chemical Stability in Aqueous Buffer at pH 1 (% remaining after 2 h at 37 °C)
# [21] = pH 4, 2 h, read-out: Chemical Stability in Aqueous Buffer at pH 4 (% remaining after 2 h at 37 °C)
# [22] = pH 6.5, 2 h, read-out: Chemical Stability in Aqueous Buffer at pH 6.5 (% remaining after 2 h at 37 °C)
# [23] = pH 8, 2 h, read-out: Chemical Stability in Aqueous Buffer at pH 8 (% remaining after 2 h at 37 °C)
# [24] = pH 10, 2 h, read-out: Chemical Stability in Aqueous Buffer at pH 10 (% remaining after 2 h at 37 °C)
# [25] = read-out: mouse CB2R: cAMP EC50
# [26] = * previously published; read-out: hCB1R: cAMP EC50; cited from earlier work
SMILES,"solubility thermodynamic [1, 16] [µg/mL]","solubility thermodynamic [1, 17] [µg/mL]","solubility thermodynamic [1, 18] [µg/mL]","pEC50 [5, 19]",T1/2 [6] [h],Tmax [6] [min],"remaining at 2 h [7, 20] [%]","remaining at 2 h [7, 21] [%]","remaining at 2 h [7, 22] [%]","remaining at 2 h [7, 23] [%]","remaining at 2 h [7, 24] [%]",Hepatocyte Clearance human [8] [μL/min/Mio cells],Clearance (CL) [9] [mL/min/kg],Vss [9] [L/kg],PAMPA Peff [11],PAMPA %Acceptor [11] [%],PAMPA %Donor [11] [%],PAMPA %Membrane [11] [%],mouse CB2R: cAMP efficacy [3] [%],mouse CB2R: beta arrestin efficacy [5] [%],also measured
"CNC(=O)[C@@H](NC(=O)c1cc(OCC2(C)COC2)c(C2CC2)cn1)C(C)(C)C [RO6851228, 5-Cyclopropyl-N-[(2S)-3,3-dimethyl-1-(methylamino)-1-oxobutan-2-yl]-4-[(3-methyloxetan-3-yl)methoxy]pyridine-2-carboxamide]",421,243,497,< 4.52,1.17,15,93,100,99,100,100,12,73.8,3.1,5.17 10*-6 cm/s,19,79,3,–,–,clearance in human as well as mouse microsomes (class in words) [2]: low to medium clearances; hCB2R cAMP EC50/mouse CB2R cAMP EC50 ratio [3]: 7; LogD (at pH 7.4) [4]: 3.21; activity in mouse CB2R β-arrestin assay [5]: not active; F ([6]; oral 3 mg/kg): 31%; AUCINF D [9]: 226 ng·kg·h/mL/mg; T1/2 [9]: 1.08 h; P-glycoprotein-Mediated Efflux Extraction Ratio human [10]: 6.5; Plasma Protein Binding: FREE Fraction human [12]: 9.6%
"CCCCCCC(C)(C)c1cc(OC)c([C@H]2C=C(CO)[C@H]3C[C@@H]2C3(C)C)c(OC)c1 [HU308, {(1S,4S,5S)-4-[2,6-Dimethoxy-4-(2-methyloctan-2-yl)phenyl]-6,6-dimethylbicyclo[3.1.1]hept-2-en-2-yl}methanol, reference compound]",52,60,< 1,–,3.3,30,–,–,–,–,–,8.3,–,–,2.53 10*-6 cm/s,3,23,74,99,76,pEC50 ([13]; read-out: hCB1R: beta arrestin EC50; * previously published; cited from earlier work): < 5.00; pEC50 [3]: 8.22; pEC50 [5]: 6.23; Kinetic Solubility [14]: < 0.75 µg/mL; pEC50 ([15]; read-out: hCB1R: cAMP EC50; * previously published; cited from earlier work): < 5.00
"CC(C)(C)c1nc(N2CC[C@H](O)C2)c2nnn(Cc3nnnn3C3CC3)c2n1 [RO6871304, (3S)-1-{5-tert-butyl-3-[(1-cyclopropyl-1H-tetrazol-5-yl)methyl]-3H-[1,2, 3]triazolo[4,5-d]pyrimidin-7-yl}pyrrolidin-3-ol]",–,–,–,7.59,–,–,100,100,100,99,100,15,36.5,0.95,3.06 10*-6 cm/s,8,62,30,101,94,"clearance in human as well as mouse microsomes (class in words) [2]: low to medium clearances; pEC50 [3, 25]: 9.30; LogD (at pH 7.4) [4]: 2.78; Kinetic Solubility [14]: 162 ± 2 µg/mL; pEC50 [15, 26]: < 5.00"
"CCCCCCC(C)(C)c1cc(OC)c(C2=C[C@H]3CC[C@]2(CO)C3(C)C)c(OC)c1 [HU910, {(1S,4R)-2-[2,6-dimethoxy-4-(2-methyloctan-2-yl)phenyl]-7,7-dimethylbicyclo[2.2.1]hept-2-en-1-yl}methanol, reference compound]",59,128,< 1,6.65,5.2,60,94,93,91,94,93,9.2,2.8,0.26,0.45 10*-6 cm/s,1,42,57,99,54,"pEC50 ([13]; * previously published; read-out: hCB1R: beta arrestin EC50; cited from earlier work): < 4.52; pEC50 [3, 25]: 8.52; hCB2R β-arrestin EC50/mouse CB2R β-arrestin EC50 [5]: 0.5; AUCINF D [9]: 6060 ng·kg·h/mL/mg; T1/2 [9]: 7.4 h; P-glycoprotein-Mediated Efflux Extraction Ratio human [10]: 2.2; Kinetic Solubility [14]: < 0.5 µg/mL; pEC50 [15, 26]: < 5.00; Plasma Protein Binding: FREE Fraction human [12]: 1.8%"
